Test results published in patent publication US20230203095A1, “BIOLOGICAL PEPTIDE FOR TREATING LUNG DISEASES AND APPLICATION THEREOF” (SHANGHAI INSTITUTE OF PHARMACEUTICAL INDUSTRY CO., LTD., priority 2019, published 2023).
Read-outs that look alike come from different tables or passages of the source. Square brackets hold non-standard residues; d marks the D form. Peptide text beside a SMILES is read from it.

How the values were obtained:
[1] = Stability of each 7-peptide compound in rat whole blood; assay type: in vitro ADME; details: for recovery: read-out: Recovery rate (%) M±SD
Method: Preparation of the test product: SP and SIPI-D00 were dissolved and diluted with an appropriate amount of 50% acetonitrile water containing 0.1% formic acid to obtain a working solution with a concentration of 200 µg/mL.
• 1) Fresh rat whole blood was added to the EP tube, and shaken gently to mix well; • 2) The EP tube was pre-incubated in a 37° C. water bath for 5 minutes; • 3) Each compound was added to start the reaction and continued to incubate at 37° C.; • 4) 50 µL sample was taken from the sample tube at 0, 2 min, 5 min, 10 min, 30 min, and 60 min, respectively, into the stop tube, 50 µL of ice-cold 7% perchloric acid was added, and shaken to stop the reaction; • 5) Sample was centrifuged at 13000 r/min for 10 min, 75 µL supernatant was aspirated, 60 µL1.25% ammonia water was added and mixed well. After filtered with […] microporous membrane, 20 µL sample was taken for LC-MS/MS analysis.

[2] = system: OVA-induced asthma model mice; assay: Lung pathology (H&E) of OVA-induced asthma model mice; assay type: in vivo, BALB/c mice; details: after 28 days
Method: (§1) The first batch: mice were divided into groups, 10 mice in each group, namely: blank control group (normal saline), model group (OVA, 20 ug/mouse), SP peptide group (administered dose of 175 µg/kg body weight/day, 350 µg/kg body weight/day, respectively), SIPI-D00 peptide group (administered dose of 175 µg/kg body weight/day, 350 µg/kg body weight/day), and dexamethasone group (administered dose of 2 mg/kg body weight/day).
Mice in the model group, SP peptide group, SIPI-D00 peptide group and dexamethasone group were sensitized by intraperitoneal injection of OVA (20 µg OVA/mice) on day 0, 7, and 14, and challenged by aerosol administration of OVA (once a day for 5 consecutive days) on day 21-25 to construct asthmatic model animals. Mice in the model group were given normal saline on days 21-28; mice in different doses of SP peptide group and SIPI-D00 peptide group were injected subcutaneously with different doses of SP and SIPI-D00 on days 19-28; mice in dexamethasone group were injected intraperitoneally with 2 mg/kg/day dexamethasone on days 21-28. At the same time, 10 mice in the blank control group were fed normally from day 0 to day 28 without any treatment, and were given normal saline as a blank control.
After 28 days, the mouse lung tissue was taken out, fixed in 4% formaldehyde, embedded in paraffin, sectioned, and stained with H&E for pathological observation.
as §1, with “ug/mice), and” for “ug/mouse),”, “SIPI-G5” for “SIPI-D00”, “weight/day),” for “weight/day), and”
At the same time, 10 mice in the blank control group were fed normally from day 0 to day 28 without any treatment, and were given normal saline as a blank control.

[3] = rat whole blood, 37° C., 1000 ng/mL, incubation time 60 min

- recovery ([1]; rat whole blood, 37° C., 1000 ng/mL, incubation time 0 min): 100%
- recovery ([1]; rat whole blood, 37° C., 1000 ng/mL, incubation time 2 min): 97.9 ± 7.4%
- recovery ([1]; rat whole blood, 37° C., 1000 ng/mL, incubation time 5 min): 101 ± 10.7%
- recovery ([1]; rat whole blood, 37° C., 1000 ng/mL, incubation time 10 min): 99.6 ± 1.3%
- recovery ([1]; rat whole blood, 37° C., 1000 ng/mL, incubation time 30 min): 97.9 ± 2.5%
- Recovery rate (%) M±SD [1, 3]: 103±3.9%
- recovery [1, 3]: 100%
Structure (SMILES): C[C@H](O)[C@@H](NC(=O)[C@@H](Cc1ccc(O)cc1)NC(=O)[C@H](NC(=O)[C@@H](CO)NC(=O)CN)[C@H](C)O)C(=O)N[C@H](CCC(N)=O)C(=O)NCC(=O)O [SIPI-D00, GSTYTQG] (H-G[dS][dT][dY][dT][dQ]G-OH)
- stability in whole blood ([1]; compared with SP peptide): significantly higher than that of SP peptide
- lung pathology, H&E ([2]; high-dose group (350 µg/kg body weight/day)): less inflammatory cell infiltration and clear alveolar cavity
- lung pathology, H&E ([2]; low-dose group (175 µg/kg body weight/day)): more inflammatory cells infiltrating in the lungs
- infiltration of inflammatory cells in the lungs, H&E ([2]; overall): significantly reduce the infiltration of inflammatory cells
